Measured values from US10195204B2, “Methods of treating hemoglobinopathies” (DUKE UNIVERSITY, priority 2011, dated 2019).
Read-outs that look alike come from different tables or passages of the source.

Key:
[1] = test system: PMN adhesion to non-activated HUVECs; test: Adhesion to HUVECs of PMNs co-incubated with epinephrine-stimulated SS RBCs; format: cell-based, human; settings: SS RBCs pre-incubated with inhibitor for 1 hour, then 20 nM epinephrine 1 min
Protocol: The cells were then washed prior to admixture with fluorescently-labeled native polymorphonuclear cells (PMNs) obtained from healthy donors at a RBC:PMN ratio of 10:1. After co-incubation for 30 minutes at 37° C., cells mixtures were assayed for their ability to adhere to non-activated HUVECs. […] Downregulation of RBC adhesion receptor activity by targeting ERK may not only decrease SS RBC adhesion to the endothelium but also reduce RBC-stimulated leukocyte activation.

[2] = test system: human SS RBC adhesion in inflamed venules and vaso-occlusion; test: Intravital microscopy in TNF-α-treated nude mice infused with human SS RBCs treated ex vivo with MEK inhibitor; settings: for percentage of venular length occupied by treated SS RBCs: compared to sham
Description: For some in vivo adhesion studies, packed SS RBCs were fluorescently labeled with the dye Dil (Molecular Probes Inc., Eugene, Oreg.), following the manufacturer's instructions. […] Cell morphology was checked by microscopy.

[3] = test system: SS RBC adhesion to HUVECs; test: Flow chamber adhesion of SS RBCs to non-activated HUVECs; format: cell-based, human; settings: for mean decrease in SS RBC adhesion after 30 min exposure: 30 min vs 1 min epinephrine
Protocol: Cells were then washed three times with 5 ml PBS with Ca^2+ and Mg^2+. Prior to adhesion assays, washed treated SS RBCs were labeled with PKH 26 red fluorescent cell linker kit (Sigma-Aldrich, St. Louis, Mo.), following the manufacturer's instructions. […] The flow chamber was mounted on the stage of an inverted phase contrast microscope (Diaphot, Nikon Inc., Melville, N.Y.) connected to a thermoplate (Tokai Hit Co., Ltd., Japan) set at 37° C. […] Before exposure to flow, a minimum of three fields at each of seven different locations along a line oriented normal to future flow were examined for the total number of fluorescent cells. Fluid flow (HBSS with Ca^2+, Mg^2+) was then started using a calibrated syringe pump. After exposure to flow, the fields were again examined and the number of adherent cells counted. The fraction of adherent cells was presented as (number of cells attached after exposure to flow)/(cells present per field before flow). The wall shear stress was calculated as: [formula] τw=wall shear stress (dyne/cm^2); Q=volumetric flow rate (cm^3/s); μ is media viscosity, w is the width of the flow channel, and H(x) is the height of the flow chamber as a function of position along the microscope slide. Several investigators have shown that blood flow in small vessels may be continuous, with shear stresses of 1-2 dynes/cm^2, or flow may be intermittent. Our data were obtained using both intermittent and continuous flow conditions.

[4] = test system: human SS RBC adhesion to vascular endothelium and vaso-occlusion
Protocol: All animal experiments were carried out in accordance with protocols approved by the Duke University Animal Care and Use Committee. Female athymic homozygous nude mice (nu-/nu-) were between 8-12 weeks of age (Charles River Laboratories, Wilmington, Mass.).
General anesthesia was achieved by intra-peritoneal injection of 100 mg/kg of ketamine (Abbott Laboratory, Chicago, Ill.) and 10 mg/kg of xylazine (Bayer, Shawnee Mission, Kans.). A double-sided titanium frame window chamber was surgically implanted into the dorsal skin fold under sterile conditions using a laminar flow hood. Surgery involved carefully removing the epidermal and dermal layers of one side of a dorsal skin fold, exposing the blood vessels of the subcutaneous tissue adjacent to the striated muscles of the opposing skin fold, and then securing the two sides of the chamber to the skin using stainless steel screws and sutures. A glass window was placed in the chamber to cover the exposed tissue and secured with a snap ring. Subsequently, animals were kept at 32-34° C. until in vivo studies were performed 3 days post-surgery.
Murine recombinant TNF-α was dissolved in normal saline at a concentration of 0.1 mg/mL and mice bearing dorsal-skin window chamber implants were given a single intraperitoneal (IP) injection of 20 μg/kg TNF-α and control animals received same volume of normal saline. […] Thirty minutes later, labeled human SS RBCs (300 μl hematocrit (Hct) 50% in PBS with Ca^2+ and Mg^2+) were then infused. […] Animals were placed on the stage of an Axoplan microscope (Carl Zeiss, Thornwood, N.Y.); temperature was maintained at 37° C. using a thermostatically controlled heating pad. […] Microcirculatory events and cell adhesion were simultaneously recorded using a Trinitron Color video monitor (PVM-1353 MD, Sony) and JVC videocassette recorder (BR-53784, VCR King, Durham, N.C.) connected to a digital video camera C2400 (Hamamatsu Photonics K.K., Japan). Arterioles were distinguished from venules based on: 1) observation of divergent flow as opposed to convergent flow; 2) birefringent appearance of vessel walls using transillumination, which is characteristic of arteriolar vascular smooth muscle; and 3) relatively straight vessel trajectory without evidence of tortuosity. Cell adherence was quantitated by considering cells attached to the vessel walls and immobile for 1 minute. The percentage of the length of vessels with diameters≤25 μm or >25 μm, occupied by SS RBCs was quantified as: % venular length occupied by SS RBCs=length of vessel wall with adherent cells/total length of the vessel segments analyzed×100.

[5] = test system: ERK1/2; settings: ERK1/2 from epinephrine-treated SS RBCs, n=4
Protocol: Treated packed SS RBCs were lysed for 20 min at 4° C. with lysis buffer (10 mM EDTA, 20 mM Tris, 110 mM NaCl, pH 7.5) containing 2 mM PMSF, 1% Triton X-100, phosphatase inhibitor cocktail (Sigma) and protease inhibitor cocktail (Sigma). ERK1/2 was immunoprecipitated with anti-ERK1/2 antibody at 4° C., and immune complexes were obtained using protein A-agarose (Amersham Biosciences Corp., Piscataway, N.J.). ERK1/2 immunocomplex was examined for ERK1/2 activity using myelin basic protein (MBP) at 2 mg/ml (Millipore) as a substrate and ATP as a phosphate donor with equal protein amounts per assay condition. For the negative control, an equal volume of water was substituted for ERK1/2 substrate. […] The reaction mixture was incubated for 20 min at 30° C., followed by protein separation and immunoblotting using anti-phosphoMBP mAb (Millipore).

[6] = test system: cAMP production in SS RBCs
Protocol: Whole cell cAMP accumulation was assayed to assess the functional capacity of the RBC β2-ARs to stimulate the production of cAMP. Washed packed RBCs were pre-treated with IBMX to define basal cAMP accumulation, followed by treatment with epinephrine for 1 min or 30 min, or forskolin. Samples were placed on ice, stimulation was halted, and cells fixed by the addition of 12.5 mM EDTA. Cell samples were boiled, clarified by centrifugation and assayed for cAMP content by radioimmunoassay as described previously.^22 Basal cAMP production was subtracted from the total cAMP produced by the cells. The amounts of cAMP were then normalized as fmol cAMP/10^8 RBCs.

[7] = SS RBCs treated ex vivo with 10 μM inhibitor for 1 hour, n=5
[8] = shear stress 2 dynes/cm^2, intermittent flow
[9] = 2 mg/kg U0126 in 0.4% DMSO i.v. 30 min prior to RBC infusion

In the case of N#CC(=C(/N)Sc1ccccc1N)/C(C#N)=C(\N)Sc1ccccc1N [U0126], the “ability of epinephrine-activated SS RBCs to promote neutrophil (PMN) adhesion to HUVECs” value [1] is reported as “significantly decreased”, the “human SS RBC adhesion in inflamed venules” value [2, 7] is reported as “dramatically decreased” and the vessel obstruction [2, 7] is reported as “prevented vessel obstruction”. For the same molecule, the “percentage of venular length occupied by treated SS RBCs” value ([2]; vessels 25 μm in diameter) was “significantly decreased”, the “percentage of venular length occupied by treated SS RBCs” value ([2]; vessels with a diameter >25 μm) was “significantly decreased” and the “inhibition of SS RBC adhesion to non-activated HUVECs vs sham-treated SS RBCs” value ([3]; U0126 alone) was 91±4.6%. For the same molecule, the “inhibition of forskolin-increased SS RBC adhesion to HUVECs” value ([3]; shear stress 2 dynes/cm^2, compared to forskolin alone) was 83±4%, the “effect on epinephrine-induced SS RBC adhesion to HUVECs” value [3, 8] was “completely inhibited” and the vaso-occlusion ([4]; 0.2 mg/kg U0126 in 0.04% DMSO i.v. 30 minutes prior to RBC infusion) was “no apparent vaso-occulsion”. For the same molecule, the “SS RBC adhesion to vascular endothelium” value [4, 9] was “very little adhesion”, the vaso-occlusion [4, 9] was “no apparent vaso-occlusion” and the “percentage venular length occupied by SS RBCs” value ([4]; U0126 at 0.2 mg/kg, vessel diameter >25 μm) was “did not significantly reduce”. The “percentage venular length occupied by SS RBCs” value ([4]; U0126 at 0.2 and 2 mg/kg, vessels 25 μm in diameter, vs placebo) was “significant decrease”.
CNC[C@H](O)c1ccc(O)c(O)c1 [epinephrine] was tested, and the “mean decrease in SS RBC adhesion after 30 min exposure” value ([3]; constant flow) was 73±4.7%, the “mean decrease in SS RBC adhesion after 30 min exposure” value ([3]; intermittent flow) was 56±1.5% and the “effect on SS RBC adhesion to HUVECs” value [3, 8] was “significantly up-regulated”. The “MBP phosphorylation by immunoprecipitated ERK1/2, increase vs sham-treated cells” value [5] was 2.1±0.3 fold, the “intracellular cAMP” value ([6]; epinephrine 1 min, about 50% of samples (n=19)) was “accumulation of high levels of intracellular cAMP” and the cAMP levels ([6]; epinephrine 30 min) was “uniformly declined”.
